Assay results published in a melting point compilation (Tetko et al.; mined from patent text by program, amines drawn as free bases though some values may be those of a salt).

Structure (SMILES)	melting point
Cc1ncccc1CC(=NC#N)NC1CCc2cc(F)ccc21 (centres undefined)	148 to 149 °C
CN1CSC(Cc2cc(C(C)(C)C)c(O)c(C(C)(C)C)c2)C1=O (centres undefined)	102 to 105 °C
Cc1cc(C)c2c(c1O)C(N)C(C1CCCCC1)C2 (centres undefined)	125 to 126 °C
C=C1CCC(C(=O)OC)Cc2onc(-c3ccc(Cl)cc3)c21 (centres undefined)	113 to 114 °C
CN(CCNC(=O)c1nc(Cl)c(N)nc1N)CCC(=O)NCCN	140 to 142 °C
COc1ccc(COc2ccc(C=C(C=O)C(C=O)=Cc3ccc(OCc4ccc(OC)cc4)cc3)cc2)cc1	218 to 220 °C
C=CCN1Cc2nc3c(cnn3C=C)c(N)c2C1=O	190 to 191 °C
CN(C(=O)OCc1ccccc1)c1ccc(OCC(=O)N[C@@H](CC(N)=O)C(=O)N[C@@H](Cc2ccccc2)[C@H](O)C(=O)N2CCC[C@H]2C(=O)NC(C)(C)C)cc1	98 to 100 °C
COCc1cc(C(C)(C)C)cc(C(C)(C)C)c1O	36 to 39 °C
CN(C)C1(c2ccccc2)CCC(CNC(=O)N2CCCC(c3c[nH]c4ccc(F)cc34)C2)CC1 (centres undefined)	98 to 101 °C
COc1ccc(NN=C(Sc2ccc(OC)cc2)C(C)=O)cc1	126 to 128 °C
C=CCN(CC=C)C(=O)n1cnc(S(C)(=O)=O)n1	52 to 54 °C
Oc1cc(-c2ncnc(C(F)F)c2Cl)c(F)cc1Cl	141 to 143 °C
Cc1cccc(C)c1CNc1c(NC(C)(C)C)c(=O)c1=O	265 to 267 °C
Cc1ccc(C(=O)NC(NC(=S)Nc2ccc(Cl)nc2)C(F)(F)F)cc1 (centres undefined)	199 to 200 °C
CC1(C)Cc2cccc(Cl)c2C=[N+]1[O-]	110 to 111 °C
C=Cc1nc(C#N)c(C#N)n1CC	66 to 70 °C
O=C1NCN(c2ccc(F)cc2)C12CCN(CCNC(c1ccc(F)cc1)c1ccc(F)cc1)CC2	193 °C
COC(=O)C1CCNC(=O)C1=O (centres undefined)	151 to 153 °C
CCC1(O)CC(=O)OCc2c1ccn(Cc1cc3cc4c(cc3nc1I)OCCO4)c2=O (centres undefined)	165 to 167 °C
Cc1oc2c(C=O)cccc2c1C	56 to 58 °C

The remaining lines, values ahead:

melting point	Structure (SMILES)
99 to 102 °C	COC(=O)C1CCc2c(oc3cccc(Cl)c23)C1 (centres undefined)
107 to 109 °C	COc1ccc(-c2ccc(NC(=O)OC(C)(C)C)c([N+](=O)[O-])c2)cc1
142 to 144 °C	Cc1nc(N2CCN(Cc3ccccc3)C2=N)sc1C(=O)NCc1ccc(F)cc1
93 °C	O=C1c2ccccc2C(=S)N1C1CC=CCC1 (centres undefined)
202 to 204 °C	Cc1oc(-c2ccc(Cl)cc2)cc1C(=O)NCc1ccc2cc(O)ccc2c1
211 to 212 °C	Cc1cc(F)ccc1-c1nc(NC2CCOCC2)nc2c1ccc(=O)n2-c1ccccc1F
101 to 105 °C	Cc1ccc(/C=C/c2sccc2S(=O)(=O)Nc2onc(C)c2Br)cc1
232 to 234 °C	COc1cccc(Oc2ccc(C(=O)O)cc2C(=O)O)c1
285 to 288 °C	O=CN1CCN(S(=O)(=O)CCCOc2ccc3c(c2)CC2NC(=O)NC2=N3)CC1 (centres undefined)
206 °C	Cc1cccc(NC(=O)NCC(=O)N(CC(=O)N2CCCC2)c2ccccc2)c1
133 to 136 °C	N#Cc1cccnc1N1CCN(CNC(=O)c2ccccc2)CC1
109 to 110 °C	COC(=O)c1cn(Cc2ccc3cc(OCc4ccccc4)ccc3c2)cc1-c1ccccc1
198 °C	Cc1ccc(C(=O)N(C)Cc2cccc(-c3ccc(CC4SC(=O)NC4=O)cc3)c2)cc1 (centres undefined)
178 to 180 °C	CCCc1cc(O)cc2cc(-c3ccc(O)cc3)oc12
206 to 208 °C	CCC(C)(C)Nc1cccnc1N(C)C1CCN(C(=O)c2cc3cc([N+](=O)[O-])ccc3[nH]2)CC1
90 to 93 °C	CCCOc1cc(OCCC)c2c(=O)c(OCCC)c(-c3ccccc3)oc2c1
152 to 155 °C	O=C1CCC2(N1)C1C=CC(C1)C2c1ccccc1 (centres undefined)
204 °C	NS(=O)(=O)c1ccc(N2CN(c3ccccc3)CC2=O)c(Cl)c1
